According to patent US20100286229A1, “Modulation of Androgen Receptor for Treatment of Prostate Cancer” (priority 2005, published 2010):
“Also recorded” adds a separate entry of the source.

Columns and labels:
Format in all cases: cell-based, human
AR [1] = assay: ARE-Luc (AR-dependent luciferase) reporter activity in CaP cells in CSS medium with DHT
CWR22R cells = assay: Cell growth by methylene blue staining in CSS medium with DHT, CWR22R; details: 10 nM DHT
Hela cells = assay: Growth of AR-negative Hela cells with DHT (data not shown)
p21 = p21 protein level in lysates of LNCaP cells treated with DHT; details: 1 nM and 10 nM DHT compared to 0 nM, 0.1 nm DHT or FBS
Source text: Thus increased activity of AR due to its overexpression or hyper-stimulation with ligand inhibits cell growth, possibly due to induction of p21.

AR overexpressing cells = assay: Growth of cells transduced with AR lentivirus in CSS with or without DHT; details: 0.3 nM DHT
Protocol: (§1) Cells were plated in 6 well plates at 10^5/well. The next day, cells were transduced with concentrated GFP or AR lentiviruses, yielding 50-100% transduction efficiency. […] The medium was changed every 48 h. Cells were collected for Western blotting and luciferase assays at different time points or fixed and stained with methylene blue on day 8 after transduction.
(§2) The growth of cells overexpressing AR, cultured in CSS with no DHT, was not different from GFP expressing cells. Thus, this growth reflects the general sensitivity of certain type of cells to the presence of steroids in medium (FIG. 13A).

AR [2] = assay: AR protein level in cells transduced with AR-lentivirus, CSS medium with or without DHT (Western blotting); details: DHT-containing media vs CSS without DHT
Protocol: as §1, §2

proteasomes = assay: AR protein level in HeLa cell variants treated with proteasome inhibitor PS341
AR mRNA [3] = assay: ARE-Luc reporter cotransfection with anti-AR shRNA constructs; details: for ARE-Luc reporter activity: C4-2 cells, control shRNAs against GFP or FasL; for ARE-Luc reporter activity on endogenous AR: LNCaP cells, 48 h, control shGFP, shFasL
Source text: Based on what was known from clinical oncology and AR mutation databases we hypothesized that complete inhibition of AR function would be toxic for both androgen-dependent and androgen-refractory prostate cancer cells, because prostate cancer cells very rarely lose AR signaling during cancer progression. To completely block AR activity in these cells we used an RNAi approach (FIG. 11). We synthesized several shRNA constructs targeting different portions of AR mRNA using a loop model (see Example 4 above).
Reporter assays were performed by transiently transfecting cells with pARE-Luc plasmid and pcDNA-3.1 hygro plasmids (empty or AR), or plasmids with shRNAs in different proportions. Transfection efficiency was normalized by citransfection of pCMV-LacZ plasmid or pEGFP-mito (Clontech). Reporter activity was measured using a Luciferase Assay System (Promega) at 48 h.

LNCaP cells = assay: Growth after retroviral anti-AR shRNA transduction and hygromycin selection, LNCaP; details: retroviral vector, hygromycin selection, control anti-GFP
Source text: (§3) We confirmed that inhibition of AR signaling is growth suppressive for androgen-insensitive versions of CaP (FIG. 5). Based on what is known from clinical oncology and AR mutation databases, we hypothesized that complete inhibition of AR function would be deleterious for both androgen-dependent and androgen refractory prostate cancer cells since CaP cells very rarely loose AR signaling during progression. To estimate the dependency of prostate cancer cells on the expression of AR, we transduced them with retroviral vector expressing anti-AR siRNA with subsequent selection on hygromycin. Control cells were transduced with anti-GFP siRNA vector. Transduction efficiency was estimated in AR-negative cells, DU145.
(§4) We also estimated the dependency of prostate cancer cells on the expression of AR by transducing cells with a retroviral vector expressing anti-AR shRNA, followed by selection on hygromycin (FIG. 12). […]
(§5) For the experiments in FIG. 12, retroviral packaging and transduction were performed as follows. […] 10-14 days later, after complete death of control untransduced cells, the number of colonies was quantified, or cells were used for further experiments. […]
(§6) For the experiment in FIG. 12B, the number of colonies on each plate was counted and divided by number of colonies of AR-negative DU145 cells. […]

C4-2 cells = assay: Growth after retroviral anti-AR shRNA transduction and hygromycin selection, C4-2; details: retroviral vector, hygromycin selection, control anti-GFP
Source text: as §3, §4, §5, §6

[4] = test system: CaP cells expressing endogenous AR; assay: Growth after retroviral anti-AR shRNA transduction and hygromycin selection, CaP cells expressing endogenous AR; details: retroviral vector, hygromycin selection; for growth of CaP cells expressing endogenous AR: all tested CaP cells, control anti-GFP
Source text: as §3
We also estimated the dependency of prostate cancer cells on the expression of AR by transducing cells with a retroviral vector expressing anti-AR shRNA, followed by selection on hygromycin (FIG. 12). Control cells were transduced with anti-GFP shRNA vector; transduction efficiency was estimated on AR negative cells (DU145) transduced with the same viruses.
For the experiments in FIG. 12, retroviral packaging and transduction were performed as follows. Briefly, Ampho cells (Clontech) were transfected with retroviral expression vector. Medium with virus was collected at 48 h and immediately transferred onto the target cells. 8 μg/ml of polybrene (Sigma) was added to transduced cells. 24 h later, the medium was changed with fresh medium containing the appropriate antibiotic for selecting transduced cells. 10-14 days later, after complete death of control untransduced cells, the number of colonies was quantified, or cells were used for further experiments. Retroviral shRNA vectors were generated by inserting the H1 promoter and a cassette for cloning of shRNA into the right LTR of pLPCHygro plasmid (Clontech).
For the experiment in FIG. 12B, the number of colonies on each plate was counted and divided by number of colonies of AR-negative DU145 cells. The number of colonies of cells transduced with shRNA against GFP was set as 1. DU145 cells were obtained from ATCC.

AR mRNA [5] = assay: ARE-Luc activity with siRNAs against translated and untranslated regions of AR mRNA; details: C4-2 cells, endogenous AR
Source text: We next eliminated expression of the endogenous ligand-dependent AR in a way that would not affect the expression of the ARΔLBD mutant. To achieve this, we generated a series of lentiviral vectors expressing siRNA's against untranslated regions of AR mRNA that are missing in the generated ARΔLBD-expressing constructs. We tested their activity in C4-2 prostate cancer cells that have endogenous AR and in H1299 cells expressing only exogenous AR from the transduced construct. While all siRNA's against translated and untranslated regions of AR were active in inhibition of ARE-Luc activity in C4-2 cells, only siRNA's against translated regions were active in H1299 cells (FIG. 6).

endogenous AR = assay: Knock down of endogenous AR in CaP cells infected with lentiviral siAR6 and ARΔLBD; details: simultaneous infection with siAR6 and ARΔLBD lentiviral vectors
Source text: To generate completely ligand independent CaP cells, we simultaneously infected cells with lentiviral vectors expressing siAR6 and ARΔLBD.

C[C@]12CCC(=O)C[C@@H]1CC[C@@H]1[C@@H]2CC[C@]2(C)[C@@H](O)CC[C@@H]12 [DHT, dehydrotestosterone]
reporter induction by DHT (AR [1]; CWR22R and 22Rv1 cells): up to 3.5 fold | ARE-Luc reporter activation by DHT (AR [1]; CWR22R cells with shAR and ARDLBD): do not respond | reporter response to addition of DHT (AR [1]; LNCaP, C4-2 and CWR22R cells, CSS containing 0-10 nm DHT): reporter activation | growth at high doses of DHT (CWR22R cells): minor growth suppressing effect | growth in response to DHT (Hela cells): not affected | level of p21 (p21): higher | growth of AR overexpressing cells compared to GFP expressing control (AR overexpressing cells): suppression of growth | AR levels in cells transduced with AR-lentivirus (AR [2]): reduced AR levels to those observed prior transduction

CC(C)C[C@H](NC(=O)[C@H](Cc1ccccc1)NC(=O)c1cnccn1)B(O)O [PS341]
ARΔLBD protein level (proteasomes; HeLa cells with ARΔLBD): remained unchanged | wtAR protein level (proteasomes; HeLa cells with wtAR): increased; also recorded: accumulation of wild type AR protein

AR1: siRNA/shRNA against AR, sequence GCTCAAGGATGGAAGTGCA, SEQ ID NO 3, target 1108-1126 (listed as DNA, chemistry not given here)
ARE-Luc reporter activity (AR mRNA [3]): inhibit ARE-Luc reporter activity | ARE-Luc reporter activity on endogenous AR (AR mRNA [3]): inhibit ARE-Luc reporter activity | ARE-Luc reporter activity on endogenous AR (AR mRNA [3]; listed as shAR1): maximal activity | cell growth (LNCaP cells): inhibited the growth | cell growth (C4-2 cells): inhibited the growth | growth of CaP cells expressing endogenous AR [4]: growth inhibitory effect; also recorded: inhibits growth

AR2: siRNA/shRNA against AR, sequence GCTGCTCCGCTGACCTTAA, SEQ ID NO 4, target 1642-1660 (listed as DNA, chemistry not given here)
ARE-Luc reporter activity (AR mRNA [3]): inhibit ARE-Luc reporter activity | ARE-Luc reporter activity on endogenous AR (AR mRNA [3]): inhibit ARE-Luc reporter activity | ARE-Luc reporter activity on endogenous AR (AR mRNA [3]; listed as shAR2): did not completely block AR transcription | growth of CaP cells expressing endogenous AR [4]: no inhibitory activity

AR3: siRNA/shRNA against AR, sequence TCTCTGTGCAAGTGCCCAA, SEQ ID NO 5, target 3814-3832 (listed as DNA, chemistry not given here)
ARE-Luc reporter activity (AR mRNA [3]): inhibit ARE-Luc reporter activity | ARE-Luc reporter activity on endogenous AR (AR mRNA [3]): inhibit ARE-Luc reporter activity | ARE-Luc reporter activity on endogenous AR (AR mRNA [3]; listed as shAR3): did not completely block AR transcription | growth of CaP cells expressing endogenous AR [4]: no inhibitory activity | growth-inducing property on AR expressing CaP cells [4]: some growth-inducing property

AR6: siRNA against untranslated region of AR mRNA, sequence GTCAGGTCTTCAGTAGCCA, SEQ ID NO 6, target 688-706 (listed as DNA, chemistry not given here)
inhibition of ARE-Luc activity (AR mRNA [5]): most effective | knock down of endogenous AR (endogenous AR): nearly complete knock down of endogenous AR
